Assay results from article PMC12442245, “Activity Analysis of the P2X Receptor Antagonist PPADS against Signal Transducer and Activator of Transcription Proteins” (Chembiochem, 2025).
Non-standard residues stand in square brackets, D forms with d. Residues, ends and D or L forms follow the SMILES beside them. pY = N[C@@H](Cc1ccc(OP(=O)(O)O)cc1)C(=O)O

Columns and labels:
Format in all cases: binding
STAT4 = molecular target: T1, STAT4 (Homo sapiens, UniProt Q14765); experiment: HTRF assay, STAT4; details: STAT4 30 nM, without reducing agent, 1 h
T1 sequence (Q14765 1-748): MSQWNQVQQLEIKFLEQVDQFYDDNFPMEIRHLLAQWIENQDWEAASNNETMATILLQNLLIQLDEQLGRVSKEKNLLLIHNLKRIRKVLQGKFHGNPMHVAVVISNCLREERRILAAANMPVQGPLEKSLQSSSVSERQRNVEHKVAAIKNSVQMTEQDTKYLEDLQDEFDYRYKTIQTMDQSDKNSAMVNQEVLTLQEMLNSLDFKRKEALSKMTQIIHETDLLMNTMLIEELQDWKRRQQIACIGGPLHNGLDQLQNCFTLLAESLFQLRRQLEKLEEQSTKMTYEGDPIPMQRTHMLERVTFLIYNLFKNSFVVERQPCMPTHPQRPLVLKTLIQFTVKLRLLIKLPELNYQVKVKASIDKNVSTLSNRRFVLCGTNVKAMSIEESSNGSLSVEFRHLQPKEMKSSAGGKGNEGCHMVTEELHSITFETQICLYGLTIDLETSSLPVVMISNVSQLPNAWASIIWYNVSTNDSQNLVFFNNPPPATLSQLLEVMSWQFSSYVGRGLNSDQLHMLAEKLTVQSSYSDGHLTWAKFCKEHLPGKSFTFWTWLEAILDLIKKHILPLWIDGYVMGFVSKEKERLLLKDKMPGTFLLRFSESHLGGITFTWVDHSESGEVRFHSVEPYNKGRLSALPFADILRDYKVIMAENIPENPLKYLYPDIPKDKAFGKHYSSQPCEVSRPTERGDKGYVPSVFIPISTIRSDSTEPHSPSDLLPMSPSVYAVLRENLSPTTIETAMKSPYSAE
Source text: (§1) The azo dyes PPADS and iso‐PPADS have a deep red color in aqueous solution. […] In order to exclude this possibility, we established homogeneous time‐resolved fluorescence resonance energy transfer (HTRF) assays to confirm the degree of binding between STAT4, STAT5a, and STAT5b and the respective 5‐carboxyfluorescein‐labeled binding peptides used in the FP assay. In addition, an HTRF assay was established for STAT3, one of the STAT proteins targeted to a lesser extent in FP assays, as a specificity control (Figure 1B,C). The STAT protein constructs each contain a 6x‐His‐tag.^[ [15], [16], [17], [22] ^] A Tb^3+‐cryptate fused to an anti‐6x‐His antibody was chosen as the long‐lived fluorescent donor, while the carboxyfluorescein linked to the respective STAT‐binding peptides served as the acceptor (Figure 2A). Emission was measured with a time delay of 60 μs after excitation, allowing any initial compound fluorescence to decay beforehand. […]
(§2) Screening of chemical libraries comprising approximately 5000 known bioactive compounds in fluorescence polarization-based assays against phosphorylation-dependent protein-protein interaction domains, including STAT proteins, has been described.[1] […]
(§3) Fluorescence polarization assays
(§4) Competitive fluorescence polarization (FP) assays for STAT1,[2] […] Briefly, peptide binding to proteins was analyzed using the following carboxyfluorescein (CF) -labelled pepti des at a concentration of 10 nM: STAT1: 5-CF-GpYDKPHVL-OH, STAT3: 5-CF-GpYLPQTV -NH2, STAT4: 5-CF-GpYLPQNID-OH, STAT5a and STAT5b: 5-CF-GpYLVLDKW-OH, STAT6: 5- […]
(§5) CFGp[…]-OH. […] FP was measured using an Infinite F500 plate reader (Tecan) and measurements were converted into percent inhibition according to the binding curve equation. Curves were plotted and best fits calculated using OriginPro […]
(§6) Homogenous time-resolved fluorescence (HTRF) assays for STAT3, STAT4, STAT5a and STAT5b were carried out using Cisbio Monoclonal Antibody Anti-6His-Tb Gold as the fluorescence donor (Perkin Elmer) and the corresponding CF-labelled binding peptide as the acceptor. […] The average reading from 3 wells was obtained. […]

STAT5a = molecular target: T2, STAT5a (Homo sapiens, UniProt P42229); experiment: HTRF assay, STAT5a; details: STAT5a 110 nM, without reducing agent, 1 h
T2 sequence (P42229 1-794): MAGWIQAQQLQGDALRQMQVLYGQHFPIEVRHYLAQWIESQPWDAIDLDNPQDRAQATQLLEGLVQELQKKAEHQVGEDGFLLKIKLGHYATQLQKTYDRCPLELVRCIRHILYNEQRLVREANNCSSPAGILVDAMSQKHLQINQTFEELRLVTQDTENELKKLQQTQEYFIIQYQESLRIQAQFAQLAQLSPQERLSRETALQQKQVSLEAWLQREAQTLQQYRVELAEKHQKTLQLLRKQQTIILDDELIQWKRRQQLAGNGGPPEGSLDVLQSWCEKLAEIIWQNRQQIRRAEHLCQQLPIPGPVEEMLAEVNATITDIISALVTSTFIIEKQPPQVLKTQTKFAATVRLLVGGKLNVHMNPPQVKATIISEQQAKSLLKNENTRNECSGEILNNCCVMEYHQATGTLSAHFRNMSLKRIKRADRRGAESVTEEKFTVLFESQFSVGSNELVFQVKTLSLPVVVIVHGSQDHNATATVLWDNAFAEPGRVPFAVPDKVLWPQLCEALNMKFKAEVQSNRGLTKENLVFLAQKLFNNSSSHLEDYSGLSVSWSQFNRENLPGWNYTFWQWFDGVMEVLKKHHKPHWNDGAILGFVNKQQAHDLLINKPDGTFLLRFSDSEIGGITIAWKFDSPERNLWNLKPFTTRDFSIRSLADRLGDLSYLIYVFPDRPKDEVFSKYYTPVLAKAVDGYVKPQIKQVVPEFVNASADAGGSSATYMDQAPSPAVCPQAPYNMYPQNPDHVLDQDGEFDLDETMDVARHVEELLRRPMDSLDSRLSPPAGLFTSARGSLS
Source text: as §1, §2, §3, §4, §5, §6

STAT5b = molecular target: T3, STAT5b (Homo sapiens, UniProt P51692); experiment: HTRF assay, STAT5b; details: STAT5b 80 nM, without reducing agent, 1 h
T3 sequence (P51692 1-787): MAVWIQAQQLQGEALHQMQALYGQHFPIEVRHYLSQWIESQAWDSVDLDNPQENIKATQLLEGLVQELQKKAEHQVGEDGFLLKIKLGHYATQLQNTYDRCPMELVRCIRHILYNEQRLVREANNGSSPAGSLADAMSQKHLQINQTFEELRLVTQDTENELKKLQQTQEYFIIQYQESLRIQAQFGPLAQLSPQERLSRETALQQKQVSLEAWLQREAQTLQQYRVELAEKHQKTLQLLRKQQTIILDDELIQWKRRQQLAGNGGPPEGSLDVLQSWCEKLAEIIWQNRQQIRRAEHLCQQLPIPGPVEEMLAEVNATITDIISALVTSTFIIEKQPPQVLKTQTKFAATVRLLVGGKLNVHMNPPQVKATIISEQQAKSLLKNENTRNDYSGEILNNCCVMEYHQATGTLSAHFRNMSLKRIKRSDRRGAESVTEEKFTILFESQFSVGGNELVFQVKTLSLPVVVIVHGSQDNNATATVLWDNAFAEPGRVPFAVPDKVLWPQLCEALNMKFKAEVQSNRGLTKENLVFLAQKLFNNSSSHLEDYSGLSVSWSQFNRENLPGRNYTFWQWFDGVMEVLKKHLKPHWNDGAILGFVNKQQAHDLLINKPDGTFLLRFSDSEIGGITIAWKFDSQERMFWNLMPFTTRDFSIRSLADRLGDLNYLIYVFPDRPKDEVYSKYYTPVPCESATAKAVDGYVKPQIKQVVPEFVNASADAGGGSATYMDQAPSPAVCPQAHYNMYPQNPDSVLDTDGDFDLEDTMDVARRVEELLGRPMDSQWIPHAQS
Source text: as §1, §2, §3, §4, §5, §6

CC[C@H](C)[C@H](NC(=O)[C@H](CC(N)=O)NC(=O)[C@H](CCC(N)=O)NC(=O)[C@@H]1CCCN1C(=O)[C@H](CC(C)C)NC(=O)[C@H](Cc1ccc(OP(=O)(O)O)cc1)NC(=O)CNC(C)=O)C(=O)N[C@@H](CC(=O)O)C(=O)O [Ac‐GpYLPQNID] (Ac-G[pY]LPQNID-OH)
IC50 (STAT4): 2010 ± 80 nM

CC(C)C[C@H](NC(=O)[C@H](Cc1c[nH]c2ccccc12)NC(=O)[C@H](CCCCN)NC(=O)[C@H](CC(=O)O)NC(=O)[C@H](CC(C)C)NC(=O)[C@@H](NC(=O)[C@H](CC(C)C)NC(=O)[C@H](Cc1ccc(OP(=O)(O)O)cc1)NC(=O)[C@@H](NC(=O)[C@@H](N)CC(=O)O)[C@@H](C)O)C(C)C)C(=O)O (H-DT[pY]LVLDKWL-OH)
IC50 (STAT5a): 2480 ± 270 nM | IC50 (STAT5b): 4180 ± 250 nM
